Laboratory results published in ChEMBL document CHEMBL1201862, “PubChem BioAssay data set” (2004).
Values joined by “and” are separate entries in the source; they are usually repeats but may differ in a detail not shown here. Equal entries are not always repeated.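 1) Cells in 96-well plates. 2) Compound, 48 h, 5 concentrations. 3) Linear interpolation between surrounding doses. 4) Unreached endpoint = highest concentration. At the GI50, growth is halved.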 Active and inactive are the calls of the source. Cut-off read from the data, not from the text of the source: active = GI50 up to about 1.1 µM and inactive = higher.

Columns and labels:
Assay in all cases: NCI anticancer screen, dose series, 48 h
[1] = tested on: DU-145
[2] = tested on: MOLT-4
[3] = tested on: A549
[4] = tested on: SK-OV-3
[5] = tested on: K562
[6] = tested on: Hs-578T
[7] = tested on: HT-29
[8] = tested on: SF-539
[9] = tested on: HCT-116
[10] = tested on: MDA-N
[11] = tested on: U-251
[12] = tested on: HCT-15
[13] = tested on: SK-MEL-5
[14] = tested on: MCF7
[15] = tested on: NCI-H226
[16] = tested on: KM12
[17] = tested on: SR
[18] = tested on: OVCAR-4
[19] = tested on: NCI/ADR-RES

Row | Compound | GI50 [1] | GI50 [2] | GI50 [3] | GI50 [4] | GI50 [5] | GI50 [6] | GI50 [7] | GI50 [8] | GI50 [9] | GI50 [10] | GI50 [11] | GI50 [12] | GI50 [13] | GI50 [14] | GI50 [15] | GI50 [16] | GI50 [17] | GI50 [18] | GI50 [19]
1 | Oc1ccccc1C(c1cc2c(cc1O)OCO2)N1CCOCC1 (stereo not drawn) | 37.4 µM (inactive) | 8.24 µM (inactive) | 23 µM (inactive) | 19.8 µM (inactive) | 5.25 µM (inactive) | 19.5 µM (inactive) | 18.5 µM (inactive) | 20.7 µM (inactive) | 17.7 µM (inactive) | 18.7 µM (inactive) | 16.6 µM (inactive) | 16.4 µM | 17.3 µM (inactive) | 19.4 µM (inactive) | 35.6 µM (inactive) | 19.8 µM (inactive) | 8.07 µM (inactive) | – | –
2 | CCOC(=O)Nc1sc2c(c1C#N)CCCC2 | > 100 µM (inactive) | 62.5 µM (inactive) | – | > 100 µM (inactive) | 33.1 µM (inactive) | 78.7 µM (inactive) | > 100 µM (inactive) | – | 74.1 µM (inactive) | 50.4 µM (inactive) | > 100 µM (inactive) | 79.4 µM | 71.6 µM (inactive) | > 100 µM (inactive) | 89.5 µM (inactive) | 25.9 µM (inactive) | 75 µM (inactive) | > 100 µM (inactive) | –
3 | O=C(O)C12C3CCC(O3)C1(C(=O)O)C1CCC2O1 (stereo not drawn) | > 100 µM (inactive) | > 100 µM (inactive) | > 100 µM (inactive) | > 100 µM (inactive) | > 100 µM (inactive) | > 100 µM (inactive) and 98.2 µM (inactive) | > 100 µM (inactive) | > 100 µM (inactive) | > 100 µM (inactive) | – | > 100 µM (inactive) | > 100 µM | > 100 µM (inactive) | > 100 µM (inactive) | > 100 µM (inactive) | > 100 µM (inactive) | – | – | > 100 µM (inactive)
4 | COc1ccc2c(c1)CC1(O)COc3cc(OC)ccc3C1O2 (stereo not drawn) | > 100 µM (inactive) | 48.4 µM (inactive) | > 100 µM (inactive) | > 100 µM (inactive) | – | – | > 100 µM (inactive) | > 100 µM (inactive) | > 100 µM (inactive) | > 100 µM (inactive) | 91.6 µM (inactive) | 96.2 µM | 38.8 µM (inactive) | > 100 µM (inactive) | > 100 µM (inactive) | > 100 µM (inactive) | > 100 µM (inactive) | 63.7 µM (inactive) | 68.9 µM (inactive)
5 | N#CC(=C1CCN(CCCC(=O)c2ccc(F)cc2)CC1)c1ccccc1 | > 100 µM (inactive) | > 100 µM (inactive) | > 100 µM (inactive) | > 100 µM (inactive) | > 100 µM (inactive) | > 100 µM (inactive) | 62.2 µM (inactive) | > 100 µM (inactive) | > 100 µM (inactive) | – | > 100 µM (inactive) | > 100 µM | > 100 µM (inactive) | > 100 µM (inactive) | > 100 µM (inactive) | > 100 µM (inactive) | > 100 µM (inactive) | > 100 µM (inactive) | > 100 µM (inactive)
6 | C=CCC1C(O[Si](C)(C)C(C)(C)C)C(CO[Si](C)(C)C(C)(C)C)OC1n1ccc(=O)[nH]c1=O (stereo not drawn) | 1.52 µM (inactive) | 0.597 µM (active) | 1.38 µM (inactive) | – | 1.22 µM (inactive) | – | 1.44 µM (inactive) | 1.6 µM (inactive) | 1.06 µM (active) | 1.51 µM (inactive) | 2.2 µM (inactive) | 1.15 µM | 1.51 µM (inactive) | 1.15 µM (inactive) | 1.51 µM (inactive) | 1.96 µM (inactive) | 2.07 µM (inactive) | 1.15 µM (inactive) | 1.66 µM (inactive)
7 | CC(=O)OC[C@H]1CN(OC(C)=O)C[C@@H](n2cc(C)c(=O)[nH]c2=O)O1 | > 100 µM (inactive) | > 100 µM (inactive) | > 100 µM (inactive) | > 100 µM (inactive) | > 100 µM (inactive) | > 100 µM (inactive) | – | > 100 µM (inactive) | > 100 µM (inactive) | > 100 µM (inactive) | > 100 µM (inactive) | > 100 µM | > 100 µM (inactive) | > 100 µM (inactive) | > 100 µM (inactive) | > 100 µM (inactive) | – | > 100 µM (inactive) | –
8 | O=C1CN(c2ccccc2)C(=O)CN1CCN1CC(=O)N(c2ccccc2)CC1=O | > 100 µM (inactive) | > 10 µM (inactive) | > 100 µM (inactive) | > 100 µM (inactive) | – | > 100 µM (inactive) | > 100 µM (inactive) | > 100 µM (inactive) | > 100 µM (inactive) | > 100 µM (inactive) | > 100 µM (inactive) | > 100 µM | > 100 µM (inactive) | > 100 µM (inactive) | – | > 100 µM (inactive) | > 100 µM (inactive) | > 100 µM (inactive) | –
